{"source": "patent US20230203126A1", "about": "“A COMPOSITION COMPRISING S-ARRESTIN PEPTIDES” (WORG PHARMACEUTICALS (HANGZHOU) CO., LTD., priority 2019, published 2023)", "test_system": "S-Ag-induced cell activation (IFNy production of LN cells and splenocytes)", "assay": "Ex vivo tolerization experiment (DR3tg mice)", "assay_type": "in vivo", "conditions": "for reduction of S-Ag-induced cell activation (IFNy) in spleens: dose escalation to 15 nmol per peptide s.c., cocktail vs single peptide, vs control group, two independent experiments (FIG. 7); for reduction of S-Ag-induced cell activation (IFNy) in lymph nodes / reduction of S-Ag-induced cell activation (IFNy) in spleen: single peptide escalating dose s.c., vs PBS; for reduction of S-Ag-induced cell activation (IFNy) in lymph nodes: 10 days after immunization (FIG. 5A, 6A); for reduction of S-Ag-induced cell activation (IFNy) in spleen: 10 days after immunization (FIG. 5B, 6B)", "procedure": "(§1) FIG. 5: 17JK alone induces tolerance towards S-Ag protein in DR3tg mice. Mice were injected subcutaneously in the flank with 0,1 µg/ml, 1 µg/ml and 10 µg/ml 17JK on days -15, -13 and -11, followed by 3 injections of 100 µg/ml on days -8, -6 and -4 (escalating dose regime). On day 0, mice were immunized subcutaneously at the base of the tail with antigen/CFA. Mice were sacrificed 10 days after immunization to measure activation of LN cells and splenocytes upon S-Ag restimulation. IFNy concentration was measured in the culture supernatant as an indication of cell activation. Data represent mean ± SEM of the concentration of IFNy for the PBS-treated mice (black lines) and 17JK-treated mice (grey lines). Two-way ANOVA was used to measure overall treatment effects on T cell activation. Dunnett’s multiple comparisons test was used and significant differences are indicated in the graphs (** p<0.01; *** p<0.001). The % inhibition of IFNy production as compared to the control group is indicated in the graphs. (A) Tolerization against S-Ag in LN. IFNy production expressed as IFNy concentration (pg/ml). (B) Tolerization against S-Ag in spleen. IFNy production expressed as IFN-y concentration (pg/ml). LN, lymph nodes. Data representative of 3 independent experiments.\nas §1, with “FIG. 6: 15N3K alone induces” for “FIG. 5: 17JK alone induces”, “10 µg/ml 15N3K on days” for “10 µg/ml 17JK on days”, “lines) and 15N3K-treated mice (grey” for “lines) and 17JK-treated mice (grey”, “the graphs (* p<0.05; **** p<0.0001). The %” for “the graphs (** p<0.01; *** p<0.001). The %”, “Tolerization against SAg in spleen.” for “Tolerization against S-Ag in spleen.”\nFIG. 7: Treatment with peptide cocktail ATX975 reduces S-Ag-induced immune cell activation in DR3tg mice more efficiently than treatment with 17JK or 15N3K alone. Mice were injected subcutaneously in the flank with 0.015 nmol, 0.15 nmol and 1.5 nmol of peptide on days -15, -13 and -11 respectively, followed by 3 injections of 15 nmol peptide on days -8, -6 and -4 (dose escalation schedule). For treatment with the cocktail (ATX975) containing 3 peptides, these doses were given per peptide (reaching a total top dose of 45 nmol peptide). On day 0, mice were immunized subcutaneously at the base of the tail with antigen/CFA. Mice were sacrificed 10 days after immunization to measure activation of splenocytes upon SAg restimulation. Data represent mean ± SEM of the IFNy concentration for the control-treated mice (black lines) and peptide-treated mice (grey lines). Two-way ANOVA was used to measure overall treatment effects on T cell activation. Dunnett’s multiple comparisons test was used and significant differences are indicated in the graphs (* p<0.05; ** p<0.01; *** p<0.001; **** p<0.0001 as compared to the control group; ^# p<0.05, ^#### p<0.0001 as compared to the ATX975 group). The % inhibition of IFNy production as compared to the control group is indicated in the graphs. (A) Tolerization against S-Ag […]. IFN-y production expressed as IFN-y concentration (pg/ml). (B) Tolerization against S-Ag in spleen. […]", "note": "Several values for one entry are separate records, joined by “and”; a condition that tells them apart may be missing. Equal values may be shown once. No end group written: not given here.", "data": [{"substance": "KKKLTFRRDLYFSRVQVYKKK-NH2 [17JK]", "values": [{"measurement": "reduction of S-Ag-induced cell activation (IFNy) in spleens", "result": "80% and 52%"}, {"measurement": "reduction of S-Ag-induced cell activation (IFNy) in lymph nodes", "result": 78, "unit": "%"}, {"measurement": "reduction of S-Ag-induced cell activation (IFNy) in spleen", "result": 84, "unit": "%"}]}, {"substance": "KKKVIFKKISRDKSVTIYLGKKK-NH2 [15N3K]", "values": [{"measurement": "reduction of S-Ag-induced cell activation (IFNy) in spleens", "result": 74, "unit": "%"}, {"measurement": "reduction of S-Ag-induced cell activation (IFNy) in lymph nodes", "result": 61, "unit": "%"}, {"measurement": "reduction of S-Ag-induced cell activation (IFNy) in spleen", "result": 72, "unit": "%"}]}]}
